Assay results taken from article PMC5218480 (PLoS ONE, 2017).

System: MV-4-11 cells
Experiment: Gene expression microarray analysis (Affymetrix PrimeView) and GSEA
Format: cell-based, human
Set-up: RFU PODN (11730768_x_at) / Fold change /veh PODN (11730768_x_at) / RFU LINC00158 (11744669_a_at) / Fold change /veh LINC00158 (11744669_a_at) / RFU DUSP10 (11751237_a_at) / Fold change /veh DUSP10 (11751237_a_at) / RFU ID3 (11757404_x_at) / Fold change /veh ID3 (11757404_x_at) / RFU PLEKHG5 (11737974_s_at) / Fold change /veh PLEKHG5 (11737974_s_at) / RFU LRRC4B (11730491_at) / Fold change /veh LRRC4B (11730491_at) / RFU GIMAP4 (11747438_a_at) / Fold change /veh GIMAP4 (11747438_a_at) / RFU KRT8 (11758183_x_at) / Fold change /veh KRT8 (11758183_x_at) / RFU CNN1 (11734310_a_at) / Fold change /veh CNN1 (11734310_a_at) / RFU VPS37D (11726825_at) / Fold change /veh VPS37D (11726825_at) / RFU C10orf10 (11716522_x_at) / Fold change /veh C10orf10 (11716522_x_at) / RFU KIR2DL2 /// KIR2DL4 /// KIR2DL5A /// KIR2DL5B /// KIR2DS1 /// KIR2DS2 /// KIR2DS3 /// KIR2DS4 /// KIR3DL3 /// KIR3DL3 /// KIR3DS1 (11738374_at) / Fold change /veh KIR2DL2 /// KIR2DL4 /// KIR2DL5A /// KIR2DL5B /// KIR2DS1 /// KIR2DS2 /// KIR2DS3 /// KIR2DS4 /// KIR3DL3 /// KIR3DL3 /// KIR3DS1 (11738374_at) / RFU C1QL1 (11718748_at) / Fold change /veh C1QL1 (11718748_at) / RFU TMPRSS4 (11747572_a_at) / Fold change /veh TMPRSS4 (11747572_a_at) / RFU HAMP (11756126_x_at) / Fold change /veh HAMP (11756126_x_at) / RFU RNFT2 (11725882_a_at) / Fold change /veh RNFT2 (11725882_a_at) / RFU NR4A2 (11747474_a_at) / Fold change /veh NR4A2 (11747474_a_at) / RFU ABCC12 (11746883_a_at) / Fold change /veh ABCC12 (11746883_a_at) / RFU TMEM136 (11760407_x_at) / Fold change /veh TMEM136 (11760407_x_at) / RFU CLDN22 /// WWC2 (11732394_at) / Fold change /veh CLDN22 /// WWC2 (11732394_at) / RFU HLA-DPB1 (11760878_x_at) / Fold change /veh HLA-DPB1 (11760878_x_at) / RFU SPINT1 (11716480_a_at) / Fold change /veh SPINT1 (11716480_a_at) / RFU GAP43 (11754022_s_at) / Fold change /veh GAP43 (11754022_s_at) / RFU A4GNT (11735810_at) / Fold change /veh A4GNT (11735810_at) / RFU PRB3 (11715151_x_at) / Fold change /veh PRB3 (11715151_x_at) / RFU TUBB4B (11761932_at) / Fold change /veh TUBB4B (11761932_at) / RFU CAPN14 (11732068_a_at) / Fold change /veh CAPN14 (11732068_a_at) / RFU TMCC2 (11721928_a_at) / Fold change /veh TMCC2 (11721928_a_at) / RFU IRGQ (11745062_a_at) / Fold change /veh IRGQ (11745062_a_at) / RFU FAM174B (11720279_a_at) / Fold change /veh FAM174B (11720279_a_at) / RFU TMPRSS4 (11748680_a_at) / Fold change /veh TMPRSS4 (11748680_a_at) / RFU FAM212B (11763350_a_at) / Fold change /veh FAM212B (11763350_a_at) / RFU PLEKHG5 (11743358_a_at) / Fold change /veh PLEKHG5 (11743358_a_at) / RFU ZSCAN30 (11745921_a_at) / Fold change /veh ZSCAN30 (11745921_a_at) / RFU CMKLR1 (11741424_a_at) / Fold change /veh CMKLR1 (11741424_a_at) / RFU LOC101060620 /// MAPK8IP1 (11723275_at) / Fold change /veh LOC101060620 /// MAPK8IP1 (11723275_at) / RFU SPTSSB (11747773_x_at) / Fold change /veh SPTSSB (11747773_x_at) / RFU PRSS12 (11739890_at) / Fold change /veh PRSS12 (11739890_at) / RFU BIN1 (11741810_x_at) / Fold change /veh BIN1 (11741810_x_at) / RFU WNT11 (11732464_a_at) / Fold change /veh WNT11 (11732464_a_at) / RFU C10orf10 (11716521_a_at) / Fold change /veh C10orf10 (11716521_a_at) / RFU C5orf56 (11738089_at) / Fold change /veh C5orf56 (11738089_at) / RFU CYB561 (11721691_x_at) / Fold change /veh CYB561 (11721691_x_at) / RFU ANKRD19P (11752326_a_at) / Fold change /veh ANKRD19P (11752326_a_at) / RFU OR2T12 /// OR2T33 /// OR2T8 (11738714_s_at) / Fold change /veh OR2T12 /// OR2T33 /// OR2T8 (11738714_s_at) / RFU VCAN (11748164_a_at) / Fold change /veh VCAN (11748164_a_at) / RFU JSRP1 (11732532_at) / Fold change /veh JSRP1 (11732532_at) / RFU KRTAP10-11 (11738290_x_at) / Fold change /veh KRTAP10-11 (11738290_x_at) / RFU MYO3A (11730013_a_at) / Fold change /veh MYO3A (11730013_a_at) / RFU EBF3 (11725865_a_at) / Fold change /veh EBF3 (11725865_a_at) / RFU CAMK2N1 (11719241_x_at) / Fold change /veh CAMK2N1 (11719241_x_at) / RFU C5orf56 (11738088_a_at) / Fold change /veh C5orf56 (11738088_a_at) / RFU OLFML3 (11715873_a_at) / Fold change /veh OLFML3 (11715873_a_at) / RFU LOC100653217 /// NTM (11731650_a_at) / Fold change /veh LOC100653217 /// NTM (11731650_a_at) / RFU MAPK11 (11762145_a_at) / Fold change /veh MAPK11 (11762145_a_at) / RFU FIZ1 (11724087_x_at) / Fold change /veh FIZ1 (11724087_x_at) / RFU OASL (11726364_x_at) / Fold change /veh OASL (11726364_x_at) / RFU SOX15 (11748057_x_at) / Fold change /veh SOX15 (11748057_x_at) / RFU CD79A (11719716_a_at) / Fold change /veh CD79A (11719716_a_at) / RFU HIST1H1D (11736915_at) / Fold change /veh HIST1H1D (11736915_at) / RFU CASKIN2 (11723855_a_at) / Fold change /veh CASKIN2 (11723855_a_at) / RFU LOC730098 (11760151_x_at) / Fold change /veh LOC730098 (11760151_x_at) / RFU OR4N2 (11742367_at) / Fold change /veh OR4N2 (11742367_at) / RFU PRRT2 (11749266_a_at) / Fold change /veh PRRT2 (11749266_a_at) / RFU SNX32 (11753110_a_at) / Fold change /veh SNX32 (11753110_a_at) / RFU CDHR5 (11726645_a_at) / Fold change /veh CDHR5 (11726645_a_at) / RFU RCAN1 (11760418_a_at) / Fold change /veh RCAN1 (11760418_a_at) / RFU FAM167A (11723789_a_at) / Fold change /veh FAM167A (11723789_a_at) / RFU FAM26E (11764081_at) / Fold change /veh FAM26E (11764081_at) / RFU ISYNA1 (11749810_s_at) / Fold change /veh ISYNA1 (11749810_s_at) / RFU ACY1 (11761880_at) / Fold change /veh ACY1 (11761880_at) / RFU 11764098_at / Fold change /veh 11764098_at / RFU SAMD14 (11745864_x_at) / Fold change /veh SAMD14 (11745864_x_at) / RFU NPB (11741838_a_at) / Fold change /veh NPB (11741838_a_at) / RFU TMPRSS6 (11731388_a_at) / Fold change /veh TMPRSS6 (11731388_a_at) / RFU KRTAP10-2 (11738614_at) / Fold change /veh KRTAP10-2 (11738614_at) / RFU ARHGAP8 /// PRR5-ARHGAP8 (11727945_x_at) / Fold change /veh ARHGAP8 /// PRR5-ARHGAP8 (11727945_x_at) / RFU KRTAP5-7 /// NADSYN1 (11734609_at) / Fold change /veh KRTAP5-7 /// NADSYN1 (11734609_at) / RFU RASL12 (11751679_a_at) / Fold change /veh RASL12 (11751679_a_at) / RFU CDKN2B (11736163_a_at) / Fold change /veh CDKN2B (11736163_a_at) / RFU PRF1 (11729649_at) / Fold change /veh PRF1 (11729649_at) / RFU, ZNF638 /// ZNF638-IT1 / Fold change vs veh, ZNF638 /// ZNF638-IT1 / RFU, PANK3 / Fold change vs veh, PANK3 / RFU, SH3YL1 / Fold change vs veh, SH3YL1 / RFU, ZEB2 / Fold change vs veh, ZEB2 / RFU, NRIP1 / Fold change vs veh, NRIP1 / RFU, PTTG1IP / Fold change vs veh, PTTG1IP / RFU, CAPN2 / Fold change vs veh, CAPN2 / RFU, MED14 / Fold change vs veh, MED14 / RFU, SNORA58 / Fold change vs veh, SNORA58 / RFU, C1orf63 / Fold change vs veh, C1orf63 / RFU, LRRFIP1 / Fold change vs veh, LRRFIP1 / RFU, NDUFAF7 / Fold change vs veh, NDUFAF7 / RFU, SLC12A2 / Fold change vs veh, SLC12A2 / RFU, IBTK / Fold change vs veh, IBTK / RFU, ESF1 / Fold change vs veh, ESF1 / Fold change vs veh, TMEM50B / RFU, TAOK1 / Fold change vs veh, TAOK1 / RFU, ACBD3 / Fold change vs veh, ACBD3 / RFU, TMA16 / Fold change vs veh, TMA16 / RFU, RWDD3 / Fold change vs veh, RWDD3 / RFU, BCAT1 / Fold change vs veh, BCAT1 / RFU, EDEM3 / Fold change vs veh, EDEM3 / RFU, TMEM33 / Fold change vs veh, TMEM33 / RFU, WDR75 / Fold change vs veh, WDR75 / RFU, AHCTF1 / Fold change vs veh, AHCTF1 / RFU, TFRC / Fold change vs veh, TFRC / RFU, ZDHHC17 / Fold change vs veh, ZDHHC17 / RFU, NOM1 / Fold change vs veh, NOM1 / RFU, ARL8B / Fold change vs veh, ARL8B / RFU, ZBTB11 / Fold change vs veh, ZBTB11 / RFU, TAMM41 / Fold change vs veh, TAMM41 / RFU, KIAA1704 /// LOC100996395 / Fold change vs veh, KIAA1704 /// LOC100996395 / RFU, ING1 / Fold change vs veh, ING1 / RFU, TRMT61B / Fold change vs veh, TRMT61B / RFU, FUBP3 / Fold change vs veh, FUBP3 / RFU, TP53 / Fold change vs veh, TP53 / RFU, TNKS2 / Fold change vs veh, TNKS2 / RFU, ZFP14 / Fold change vs veh, ZFP14 / RFU, ACTR2 / Fold change vs veh, ACTR2 / RFU, PPP3R1 / Fold change vs veh, PPP3R1 / RFU, PIK3R1 / Fold change vs veh, PIK3R1 / RFU, HNRNPA1 / Fold change vs veh, HNRNPA1 / RFU, RNF170 / Fold change vs veh, RNF170 / RFU, ZNF28 / Fold change vs veh, ZNF28 / RFU, RNGTT / Fold change vs veh, RNGTT / RFU, OGT / Fold change vs veh, OGT / RFU, BRD1 / Fold change vs veh, BRD1 / RFU, MARS / Fold change vs veh, MARS / RFU, ZNF655 / Fold change vs veh, ZNF655 / RFU, FAHD1 / Fold change vs veh, FAHD1 / RFU, BDP1 / Fold change vs veh, BDP1 / RFU, LRRCC1 / Fold change vs veh, LRRCC1 / RFU, ARID1A / Fold change vs veh, ARID1A / RFU, ZNF146 / Fold change vs veh, ZNF146 / RFU, ZNF330 / Fold change vs veh, ZNF330 / RFU, GPN3 / Fold change vs veh, GPN3 / RFU, C9orf123 / Fold change vs veh, C9orf123 / RFU, N4BP2L2 / Fold change vs veh, N4BP2L2 / RFU, ARFIP1 / Fold change vs veh, ARFIP1 / RFU, FAM179B / Fold change vs veh, FAM179B / RFU, BCL10 / Fold change vs veh, BCL10 / RFU, UHRF1BP1L / Fold change vs veh, UHRF1BP1L / RFU, BET1 / Fold change vs veh, BET1 / RFU, CNOT2 / Fold change vs veh, CNOT2 / RFU, ZNF268 / Fold change vs veh, ZNF268 / Fold change vs veh, ZNF507 / RFU, DGCR2 / Fold change vs veh, DGCR2 / RFU, WDSUB1 / Fold change vs veh, WDSUB1 / Fold change vs veh, HSP90B1 /// MIR3652 / RFU, ADSS / Fold change vs veh, ADSS / RFU, GK / Fold change vs veh, GK / RFU, ZNF148 / Fold change vs veh, ZNF148 / RFU, TAF9 / Fold change vs veh, TAF9 / RFU, SLC1A5 / Fold change vs veh, SLC1A5 / RFU, SLMO2 / Fold change vs veh, SLMO2 / RFU, ABCC4 / Fold change vs veh, ABCC4 / RFU, LOC101060439 /// RAP1B / Fold change vs veh, LOC101060439 /// RAP1B / RFU, RFX7 / Fold change vs veh, RFX7 / RFU, GTPBP10 / Fold change vs veh, GTPBP10 / RFU, CNEP1R1 / Fold change vs veh, CNEP1R1 / RFU, BIVM-ERCC5 /// ERCC5 / Fold change vs veh, BIVM-ERCC5 /// ERCC5 / RFU, ILF3 / Fold change vs veh, ILF3 / RFU 11762660_at / Fold change /veh 11762660_at / RFU VCAN (11757783_s_at) / Fold change /veh VCAN (11757783_s_at) / RFU DDX43 (11728927_at) / Fold change /veh DDX43 (11728927_at) / RFU KRT8 (11758188_x_at) / Fold change /veh KRT8 (11758188_x_at) / RFU NKD1 (11759106_at) / Fold change /veh NKD1 (11759106_at) / RFU SRD5A1 (11742802_a_at) / Fold change /veh SRD5A1 (11742802_a_at) / RFU TPSAB1 /// TPSB2 (11721975_s_at) / Fold change /veh TPSAB1 /// TPSB2 (11721975_s_at) / RFU GSTM3 (11746129_a_at) / Fold change /veh GSTM3 (11746129_a_at) / RFU IL23R (11737362_x_at) / Fold change /veh IL23R (11737362_x_at) / RFU TMEM51 (11727254_a_at) / Fold change /veh TMEM51 (11727254_a_at) / RFU PIWIL2 (11732686_x_at) / Fold change /veh PIWIL2 (11732686_x_at) / RFU ORM1 (11744905_x_at) / Fold change /veh ORM1 (11744905_x_at) / RFU CCDC152 (11743942_at) / Fold change /veh CCDC152 (11743942_at) / RFU ECM1 (11717891_a_at) / Fold change /veh ECM1 (11717891_a_at) / RFU IL23R (11748794_a_at) / Fold change /veh IL23R (11748794_a_at) / RFU TNFAIP8L3 (11732012_x_at) / Fold change /veh TNFAIP8L3 (11732012_x_at) / RFU MBOAT4 (11741988_at) / Fold change /veh MBOAT4 (11741988_at) / RFU 11764193_at / Fold change /veh 11764193_at / RFU TMEM53 (11763286_at) / Fold change /veh TMEM53 (11763286_at) / RFU MAGEB2 (11727129_at) / Fold change /veh MAGEB2 (11727129_at) / RFU TMEM200A (11744735_a_at) / Fold change /veh TMEM200A (11744735_a_at) / RFU CCDC152 (11751479_a_at) / Fold change /veh CCDC152 (11751479_a_at) / RFU FAM211A (11726209_a_at) / Fold change /veh FAM211A (11726209_a_at) / RFU RGS16 (11746705_a_at) / Fold change /veh RGS16 (11746705_a_at) / RFU VCAN (11755009_s_at) / Fold change /veh VCAN (11755009_s_at) / RFU RHOB (11743442_s_at) / Fold change /veh RHOB (11743442_s_at) / RFU RGS16 (11720943_a_at) / Fold change /veh RGS16 (11720943_a_at) / RFU RGS16 (11720944_at) / Fold change /veh RGS16 (11720944_at) / RFU, VPS4B / Fold change vs veh, VPS4B / RFU, CREB1 / Fold change vs veh, CREB1 / RFU, DNAJC13 / Fold change vs veh, DNAJC13 / RFU, GNAQ / Fold change vs veh, GNAQ / RFU, CDK5R1 / Fold change vs veh, CDK5R1 / RFU, ZRANB3 / Fold change vs veh, ZRANB3 / RFU, CUL4A / Fold change vs veh, CUL4A / RFU, CCNY / Fold change vs veh, CCNY / RFU, UFL1 / Fold change vs veh, UFL1 / RFU, COG3 / Fold change vs veh, COG3 / RFU, DIAPH2 / Fold change vs veh, DIAPH2 / RFU, SKA2 / Fold change vs veh, SKA2 / RFU, AFF3 / Fold change vs veh, AFF3 / RFU, LMF1 / Fold change vs veh, LMF1 / RFU, IPO11 / Fold change vs veh, IPO11 / RFU, DFFB / Fold change vs veh, DFFB / RFU, FOXP1 / Fold change vs veh, FOXP1 / RFU, CARD8 / Fold change vs veh, CARD8 / RFU, STRN3 / Fold change vs veh, STRN3 / RFU, ADK / Fold change vs veh, ADK / RFU, RASSF2 / Fold change vs veh, RASSF2 / RFU, WIPF1 / Fold change vs veh, WIPF1 / RFU, LARP1B / Fold change vs veh, LARP1B / RFU, RASA1 / Fold change vs veh, RASA1 / RFU, RB1 / Fold change vs veh, RB1 / RFU, PPFIA1 / Fold change vs veh, PPFIA1 / RFU, MAT2A / Fold change vs veh, MAT2A / RFU, CCT5 / Fold change vs veh, CCT5 / RFU, WDR92 / Fold change vs veh, WDR92 / RFU, CUX1 / Fold change vs veh, CUX1 / RFU, TTC7A / Fold change vs veh, TTC7A / RFU, TMEM135 / Fold change vs veh, TMEM135 / RFU, DEPTOR / Fold change vs veh, DEPTOR / RFU, CPM / Fold change vs veh, CPM / RFU, DNAJB6 / Fold change vs veh, DNAJB6 / RFU, CACNA2D3 / Fold change vs veh, CACNA2D3 / RFU, DTX4 / Fold change vs veh, DTX4 / RFU, TFCP2 / Fold change vs veh, TFCP2 / RFU, GMCL1 /// GMCL1P1 / Fold change vs veh, GMCL1 /// GMCL1P1 / RFU, AEBP2 / Fold change vs veh, AEBP2 / RFU, SNHG1 /// SNORD22 /// SNORD25 /// SNORD26 /// SNORD27 /// SNORD28 /// SNORD29 /// SNORD31 / Fold change vs veh, SNHG1 /// SNORD22 /// SNORD25 /// SNORD26 /// SNORD27 /// SNORD28 /// SNORD29 /// SNORD31 / Fold change (Aza/veh), C12orf56 (ProbeSet 11735607_a_at) / Fold change (ACY-1035/veh), C12orf56 (ProbeSet 11735607_a_at) / Fold change (Aza/veh), FGFR1OP (ProbeSet 11751329_s_at) / Fold change (ACY-1035/veh), FGFR1OP (ProbeSet 11751329_s_at) / Fold change (Aza/veh), VPS36 (ProbeSet 11739960_a_at) / Fold change (ACY-1035/veh), VPS36 (ProbeSet 11739960_a_at) / RFU SYPL1 (11715823_x_at) / Fold change /veh SYPL1 (11715823_x_at) / RFU IGFBP7 (11715501_s_at) / Fold change /veh IGFBP7 (11715501_s_at) / RFU REEP3 (11722064_at) / Fold change /veh REEP3 (11722064_at) / RFU IGLL1 (11728026_x_at) / Fold change /veh IGLL1 (11728026_x_at): dose or concentration left out as unconfirmed
Conditions: MV-4-11 cells, 48 hours

How did the “Fold change /veh PRF1 (11729649_at)” value turn out when `Nc1ccc(-c2cccs2)cc1NC(=O)c1ccc2c(c1)cc(C1CC1)n2CCN1CCOCC1` [ACY-1035] was run?
Its value is 1.05.
